“And” between values parts separate entries of the source, which are not always exact repeats. Identical values can stand only once. Residues, ends and D or L forms follow the SMILES beside them. *: point of attachment. X1 = O=C(/N=C(/NCc1ccc(C(=O)*)cc1)Nc1ccc(Br)cc1)c1ccccc1; code Z = not defined here
Key:
[1] = target: T1, cysteine protease LmCPB2.8∆CTE (CPB) (Leishmania mexicana, UniProt P36400); conditions: irreversible inhibitor ref 13; cited from earlier work
[2] = cytotoxic activity on peritoneal macrophages; type: cell-based, Swiss mice; conditions: Swiss, mouse
Protocol: For the anti-promastigote assays, L. infantum and L. amazonensis cultures in the exponential growth phase were transferred to 96-well plates at a final concentration of 1 × 10^7 promastigotes mL^−1. […] After 72 h, viable promastigotes were determined using the MTT method.
(§1) Anti-promastigote and anti-amastigote assays, the infection index (percentage of infected cells * number of intracellular parasites/numbers of infected cells), and their cytotoxic activity were conducted as previously described.

[3] = system: L. amazonensis promastigotes; test: microbe, parasite or virus in culture; conditions: for IC50: read-out: Promastigote IC50 L. amazonensis in active serum
Description: (§2) Several strategies were employed to increase the stability of peptides, including the incorporation of non-natural amino acids, modifications of the N- and/or C-terminal, cyclization, the use of non-peptide structures (peptidomimetics), and multimerization.

[4] = system: L. infantum promastigotes; test: microbe, parasite or virus in culture; conditions: for IC50: read-out: Promastigote IC50 L. infantum in active serum
Description: as §2

[5] = system: L. infantum promastigotes; test: anti-promastigote assay (MTT) against L. infantum; type: cell-based, Leishmania infantum; conditions: 72 h
Protocol: (§3) L. amazonensis promastigotes (MPRO/BR/1972/M1841-LV-79) were grown in LIT culture medium, while L. infantum promastigotes (MNYC/BZ/62/M379) were cultivated in 199 culture medium (Sigma-Aldrich, St. Louis, MO, USA) supplemented with 10% heat-inactivated fetal bovine serum (FBS; Gibco/Invitrogen) and in 10% urine, at 28 °C, until reaching the mid-log phase of growth. Macrophages were sourced from the peritoneal cavity of Swiss mice, using the methodology outlined by de Almeida et al. 2017 [60]. For the anti-promastigote assays, L. infantum and L. amazonensis cultures in the exponential growth phase were transferred to 96-well plates at a final concentration of 1 × 10^7 promastigotes mL^−1. Subsequently, the tested compounds were added at concentrations ranging from 1.28 to 100 µmol L^−1 to assess their anti-promastigote activity. After 72 h, viable promastigotes were determined using the MTT method.
as §1

[6] = eukaryotic membrane mimetic POPC/cholesterol, 50 μM
Protocol: As illustrated in Figure 5 and Figure 6, the analyte in question (peptide, bioconjugate, or guanidine) was added within 120 s, and after an interval of 360 s, the behavior of the membrane mimetic was reanalyzed. After this time, 10% triton was added so that the vesicles could completely release the carboxyfluorescein.
Large unilamellar vesicles (LUVs) composed of POPC (1-palmitoyl-2-oleoyl-sn-glycero-3-phosphatidylcholine) and cholesterol (Chol) (4:1) or POPC, POPS (1-palmitoyl-2-oleoyl-sn-glycero-3-serine), and ergosterol (Erg) (8:1:1) were prepared according to the methods described by Lorenzón et al. 2014 [62].

[7] = target: T1, cysteine protease LmCPB2.8∆CTE (CPB); test: cysteine protease (CPB) enzyme inhibition assay; type: biochemical, Leishmania major; conditions: for inhibition at 20 µM: read-out: CPB Inhibitory Activity 20 μM, 20 μM
Protocol: CPB inhibition experiments were performed as described previously by Moreira et al. 2022 [13]. The results were expressed as mean ± standard deviation of two independent replicates.

[8] = system: L. infantum intracellular amastigotes; type: cell-based, Leishmania infantum
Protocol: as §1

[9] = system: L. amazonensis intracellular amastigotes; type: cell-based, Leishmania amazonensis
Protocol: as §1

[10] = system: L. amazonensis promastigotes; test: anti-promastigote assay (MTT) against L. amazonensis; type: cell-based, Leishmania amazonensis; conditions: 72 h
Protocol: as §3, §1

[11] = target: cathepsin B; parameters: method as in PMID 12574338; conditions: cited from earlier work
[12] = peritoneal macrophages, Table 1 (L. amazonensis series)
[13] = peritoneal macrophages, Table 2 (L. infantum series)
[14] = culture medium with active fetal bovine serum

T1 sequence (P36400 126-343): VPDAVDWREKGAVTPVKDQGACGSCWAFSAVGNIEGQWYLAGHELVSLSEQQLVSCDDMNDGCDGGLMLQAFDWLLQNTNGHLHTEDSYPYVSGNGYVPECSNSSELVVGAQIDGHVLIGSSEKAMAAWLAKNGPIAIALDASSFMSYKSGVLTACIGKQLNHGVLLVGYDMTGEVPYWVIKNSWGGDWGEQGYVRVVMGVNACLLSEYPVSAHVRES

CC(C)C[C@H](NC(=O)[C@H]1O[C@@H]1C(=O)O)C(=O)NCCCCN=C(N)N (relative stereo) [Compound E64, L-trans-epoxysuccinyl-leucylamido-(4-guanidino)butane]
inhibition of Leishmania CPB (potency range) [1]: nanomolar range

C[C@@H]1[C@H](O)[C@@H](C)/C=C/C=C/C=C/C=C/C=C/C=C/C=C/[C@H](O[C@@H]2O[C@H](C)[C@@H](O)[C@H](N)[C@@H]2O)C[C@@H]2O[C@](O)(C[C@@H](O)C[C@@H](O)[C@H](O)CC[C@@H](O)C[C@@H](O)CC(=O)O[C@H]1C)C[C@H](O)[C@H]2C(=O)O [Amp B, Amphotericin B, reference compound]
CC50 [2, 12]: 99.8 ± 3.7 µM
IC50 ([3]; Leishmania amazonensis): 0.5 ± 0.1 µM
IC50 ([4]; Leishmania infantum): 0.3 ± 0.1 µM

O=C(O)c1ccc(CN/C(=N/C(=O)c2ccccc2)Nc2ccc(Br)cc2)cc1 [GVL1, (Z)-4-((2-benzoyl-3-(4-bromophenyl)guanidino)methyl) benzoic acid]
CC50 ([2]; Table 1 (L. amazonensis series)): > 1000 µM
CC50 [2, 13]: > 2000 µM
IC50 ([3]; Leishmania amazonensis): 65 ± 2.4 µM
IC50 ([4]; Leishmania infantum): 50 ± 1.2 µM
IC50 ([5]; Leishmania infantum): 50.8 ± 2.2 µM

N=C(N)NCCC[C@H](NC(=O)[C@H](CCCNC(=N)N)NC(=O)[C@H](CCC(N)=O)NC(=O)[C@H](CCCNC(=N)N)NC(=O)[C@H](CCCNC(=N)N)NC(=O)[C@H](CCCCN)NC(=O)[C@H](CCCCN)NC(=O)[C@H](CCCNC(=N)N)NC(=O)CNC(=O)[C@H](Cc1ccc(O)cc1)NC(=O)c1ccc(CN/C(=N/C(=O)c2ccccc2)Nc2ccc(Br)cc2)cc1)C(=O)O [GVL1-TAT] (X1-YGRKKRRQRR-OH)
permeabilization of vesicles (carboxyfluorescein release) [6]: no damage was observed in the vesicles
IC50 [7]: 3.78 ± 0.1 µM
inhibition at 20 µM [7]: ~92%
IC50 ([8]; read-out: Amastigote IC50): 3.8 ± 0.3 µM
CC50 [2, 12]: > 1000 µM
CC50 [2, 13]: > 2000 µM
IC50 [3, 14]: 2.6 ± 0.8 µM
IC50 [4, 14]: 1.2 ± 0.3 µM
IC50 ([9]; read-out: Amastigote IC50): 0.8 ± 0.06 µM
IC50 [10]: 5.3 µM and 5.32 µM
IC50 [5]: 1.2 ± 0.3 µM

N=C(N)NCCC[C@H](NC(=O)[C@H](CCCNC(=N)N)NC(=O)[C@H](CCC(N)=O)NC(=O)[C@H](CCCNC(=N)N)NC(=O)[C@H](CCCNC(=N)N)NC(=O)[C@H](CCCCN)NC(=O)[C@H](CCCCN)NC(=O)[C@H](CCCNC(=N)N)NC(=O)CNC(=O)[C@@H](N)Cc1ccc(O)cc1)C(=O)O [TAT, reference compound] (H-YGRKKRRQRR-OH; N-terminus assumed)
inhibition at 20 µM [7]: 9.42 ± 0.01%
Amastigote IC50 [8]: no leishmanicidal activity
CC50 [2, 12]: > 1000 µM
CC50 [2, 13]: > 2000 µM
Promastigote IC50 L. amazonensis in active serum [3, 14]: did not display anti-promastigote activity
Promastigote IC50 L. infantum in active serum [4, 14]: did not display anti-promastigote activity
Amastigote IC50 [9]: no activity
Promastigote IC50 [10]: no activity
Promastigote IC50 [5]: no leishmanicidal activity

Z-Arg-Leu-Val-Gly-Ile-Val-Ome ({code Z}-RLVGIV-OMe; reading uncertain; also: printed as Z-Arg-Leu-Val-Gly-Ile-Val-Ome)
Ki [11]: 0.088 nM

Source: PMC11768059, “Guanidines Conjugated with Cell-Penetrating Peptides: A New Approach for the Development of Antileishmanial Molecules” (Molecules, 2025)
